Laboratory results reported in patent US10550135B2, “Silicon incorporated quinolines with anti-malarial and anti-toxoplasmosis activity” (Council of Scientific & Industrial Research, priority 2016, dated 2020).

Experiments:
[1] = tested on: T. gondii; assay: Anti-toxoplasma screening, luciferase-expressing T. gondii (TgLuc+) in HFF cells, luminescence; assay type: cell-based; details: for inhibition at 10 µM: 48 h, primary screen, TgLuc+ tachyzoites in HFF cells, 2 days
Procedure: (§1) • a) Anti-malarial screening: Plasmodium falciparum (3D7; Malaria Research and Reference Reagent Resource Center ID NO: MRA-102) is cultured in the laboratory as per standard protocols [Moll et. al. 2008]. Briefly, P. falciparum is cultured using 2% hematocrit washed RBCs, separated from freshly collected human blood, in RPMI media containing glutamine, sodium bicarbonate and antibiotics. Parasites are routinely synchronized using 5% sorbitol treatment. Anti-malarial screens are carried out in two stages: 1) a primary screen at a fixed concentration of 10 μM to find out % inhibition of growth; and 2) a dose assay for finding out the IC50 of hits identified from the primary screen. In both assays the following steps are followed. 200 μL's of the diluted parasite culture (2% parasitemia and 2% hematocrit; at late ring stage), is added to each well in a 96 well plate pre-seeded with the compound of interest at the required concentration of 10 μM. The master stocks and dilutions of the compounds are prepared in cell culture grade DMSO. NOTE: DMSO only treatment control is done and the results are used for normalizing the data obtained from compound treatment. All compounds are plated in triplicates. Each 96 well plate also includes negative control (compound untreated culture) and positive control (standard anti-malarial treated culture). Standard anti-malarials used are chloroquine, artemisinine and atovaquone, each at 1 μM concentration. After plating, the culture is incubated in standard growth condition for 60 hours, after which the cultures are processed for testing the effect of compounds on parasite growth using SybrGreen staining and fluorescence measurements at 520 nm emission following excitation at 498 nm. Since only the parasites have DNA (as RBCs are devoid of nucleus), the SybrGreen signal is a direct indictor of parasite density in respective samples. Results are used to quantifying relative parasite growth (or conversely % inhibition of growth) in untreated, standard anti-malarial treated and test molecules treated P. falciparum cultures. Compounds showing greater than 80% reduction in parasitemia are selected from this primary screening for carrying out dose response analysis using the respective test molecules from 10 μM to 1 nM dilution series. Data from this experiment is used for the calculation of IC50 values for the respective test molecules. • b) Anti-toxoplasma screening: For screening bioactivity of test molecules against T. gondii, a transgenic line of the parasite expressing the luciferase gene is used. The parental parasite used to generate the TgLuc+ strain is a Type I (RH) virulent strain (ATCC reference 50174D), which can also be used for in vivo studies in mice, if needed. The tachyzoite stage of the parasites are routinely cultured in the laboratory using standard protocols [Roos et al., 1994. In brief, a confluent monolayer of Human Foreskin Fibroblast (HFF; ATCC reference SCRS-1041) cells in culture are used as the host cells for infection with tachyzoite stage T. gondii. The culture media used to grow parasites is standard complete DMEM (Gibco BRL, USA) containing glucose (5.5 mM), glutamine (2 mM), Hepes (25 mM) and 1% dialyzed bovine fetal calf serum (Gibco BRL, USA). For bioactivity assays, the HFF cells are grown in 96 well plates and each well is infected with 1×10^4 TgLuc+ parasitesin the presence of 10 μM of test molecules (in primary screens) in a total volume of 200 μL. After 2 days of incubation and growth in a 37° C. incubator maintaining 5% CO2, the 96 well plates are processed for luminescence measurements using the reagents in the luciferase assay kit (Promega, USA). […]

[2] = tested on: Plasmodium falciparum (3D7); assay: Anti-malarial screening, P. falciparum 3D7 growth in human RBC culture, SybrGreen fluorescence; assay type: cell-based; details: for inhibition at 10 µM: primary screen, 3D7, 60 hours; for EC50: dose response, 10 μM to 1 nM dilution series, 3D7
Procedure: as §1

Structure (SMILES) | inhibition at 10 µM [1] [%] | EC50 ([1]; HFF, dose response, 10 μM to 1 nM dilution series) [nM] | inhibition at 10 µM [2] [%] | EC50 [2] [nM]
C[Si]1(C)CCN(Cc2ccc(-c3cc(C(=O)NCCN4CCCC4)c4cc(F)ccc4n3)cc2)CC1 [NDS 100950, 2-(4-((4,4-dimethyl-1,4-azasilinan-1-yl)methyl)phenyl)-6-fluoro-N-(2-(pyrrolidin-1-yl)ethyl)quinoline-4-carboxamide] | 95.2 | 3940 | 95.7 | 60
C[Si]1(C)CCN(CCNC(=O)c2cc(-c3ccc(CN4CCOCC4)cc3)nc3ccc(F)cc23)CC1 [NDS 100951, N-(2-(4,4-dimethyl-1,4-azasilinan-1-yl)ethyl)-6-fluoro-2-(4-(morpholinomethyl)phenyl)quinoline-4-carboxamide] | 21.8 | – | 93.6 | 50
C[Si]1(C)CCN(C(=O)c2cc(-c3ccc(CN4CCOCC4)cc3)nc3ccc(F)cc23)CC1 [NDS 101006, (4,4-dimethyl-1,4-azasilinan-1-yl)(6-fluoro-2-(4-(morpholinomethyl)phenyl)quinolin-4-yl)methanone] | 0 | – | 1.87 | –
C[Si]1(C)CCN(Cc2ccc(-c3cc(C(=O)N4CCOCC4)c4cc(F)ccc4n3)cc2)CC1 [NDS 101007, (2-(4-((4,4-dimethyl-1,4-azasilinan-1-yl)methyl)phenyl)-6-fluoroquinolin-4-yl)(morpholino)methanone] | 3 | – | 2.79 | –
C[Si]1(C)CCN(Cc2ccc(-c3cc(C(=O)NCCN4CCOCC4)c4cc(F)ccc4n3)cc2)CC1 [NDS 101008, 2-(4-((4,4-dimethyl-1,4-azasilinan-1-yl)methyl)phenyl)-6-fluoro-N-(2-morpholinoethyl)quinoline-4-carboxamide] | 3 | – | 95.9 | 1260
C[Si]1(C)CCN(Cc2ccc(-c3cc(C(=O)Nc4ccccn4)c4cc(F)ccc4n3)cc2)CC1 [NDS 101009, 2-(4-((4,4-dimethyl-1,4-azasilinan-1-yl)methyl)phenyl)-6-fluoro-N-(pyridin-2-yl)quinoline-4-carboxamide] | 31 | – | 97.1 | 810
C[Si](C)(C)CCNC(=O)c1cc(-c2ccc(CN3CCOCC3)cc2)nc2ccc(F)cc12 [NDS 101037, 6-fluoro-2-(4-(morpholinomethyl)phenyl)-N-(2-(trimethylsilyl)ethyl)quinoline-4-carboxamide] | 45 | – | 9.16 | –
C[Si]1(C)CCN(Cc2ccc(-c3cc(C(=O)NCCN4CCCCC4)c4cc(F)ccc4n3)cc2)CC1 [NDS 101074, 2-(4-((4,4-dimethyl-1,4-azasilinan-1-yl)methyl)phenyl)-6-fluoro-N-(2-(piperidin-1-yl)ethyl)quinoline-4-carboxamide] | – | – | 78.8 | 112
CN1CCN(CCNC(=O)c2cc(-c3ccc(CN4CC[Si](C)(C)CC4)cc3)nc3ccc(F)cc23)CC1 [NDS 101075, 2-(4-((4,4-dimethyl-1,4-azasilinan-1-yl)methyl)phenyl)-6-fluoro-N-(2-(4-methylpiperazin-1-yl)ethyl)quinoline-4-carboxamide] | – | – | 95.2 | 403
C[Si]1(C)CCN(Cc2ccc(-c3cc(C(=O)NCCO)c4cc(F)ccc4n3)cc2)CC1 [NDS 101076, 2-(4-((4,4-dimethyl-1,4-azasilinan-1-yl)methyl)phenyl)-6-fluoro-N-(2-hydroxyethyl)quinoline-4-carboxamide] | – | – | 81.4 | 6120
C[Si]1(C)CCN(Cc2ccc(-c3cc(C(=O)NCCN4CCSCC4)c4cc(F)ccc4n3)cc2)CC1 [NDS 101077, 2-(4-((4,4-dimethyl-1,4-azasilinan-1-yl)methyl)phenyl)-6-fluoro-N-(2-thiomorpholinoethyl)quinoline-4-carboxamide] | – | – | 95.5 | 950
